Data as given in publication PMC12529164, “Design, Synthesis, Structure–Activity Relationships, and Preliminary Anticancer Properties of Menthol-Modified Coumarin Esters and 3,4-Dihydrocoumarin Derivatives” (ACS Omega, 2025).
Where two headings read alike, the source gives them in different places.

Columns and labels:
HaCaT = assay: MTT cytotoxicity assay, normal cells; type: cell-based; conditions: 72 h, human immortal keratinocytes (normal cells)
Protocol: (§1) The human primary (SW480) and metastatic (SW620) colon cancer, metastatic prostate cancer (PC3), breast adenocarcinoma (MDA-MB-231) and human immortal keratinocyte (HaCaT) cell lines were recruited from the American Type Culture Collection (ATCC). The cells were cultured in the recommended medium according to protocols (RPMI 1640 for PC3, MEM for SW480 and SW620, as well as DMEM for MDA-MB-231 and HaCaT cells) with addition of 10% FBS, penicillin (100 U/mL), and streptomycin (100 μg/mL) and cultured in 37 °C/5% CO2 in a humidified incubator. Then, the cells were passaged at a confluence of 80–90% by a treatment with 0.25% trypsin (Gibco Life Technologies) and used for studies.
(§2) They were added to 96-well plates with seeded normal and cancer cells (1 × 10^4 cells per well) and incubated for 72 h. MTT analysis was performed according to a previous study.

PC3 = assay: MTT cytotoxicity assay; type: cell-based, human; conditions: for IC50: MTT, 72 h, human metastatic prostate cancer; for SI PC3: SI = IC50 for normal cell line (HaCaT)/IC50 cancer cell line
Protocol: as §1, §2

SW620 = assay: MTT cytotoxicity assay; type: cell-based, human; conditions: for SI SW620: SI = IC50 for normal cell line (HaCaT)/IC50 cancer cell line; for IC50: MTT, 72 h, human metastatic colon cancer
Protocol: as §1, §2

MDA-MB-231 = assay: MTT cytotoxicity assay; type: cell-based, human; conditions: for IC50: MTT, 72 h, human breast adenocarcinoma; for SI MDA-MB-231: SI = IC50 for normal cell line (HaCaT)/IC50 cancer cell line
Protocol: as §1, §2

SW480 = assay: MTT cytotoxicity assay; type: cell-based, human; conditions: for SI SW480: SI = IC50 for normal cell line (HaCaT)/IC50 cancer cell line; for IC50: MTT, 72 h, human primary colon cancer
Protocol: as §1, §2

[1] = tested on: tested cancer cell lines (SW480, SW620, PC3, MDA-MB-231); assay: MTT assay, mean over tested cancer cell lines; type: cell-based; conditions: Homo sapiens, mean of the four cancer cell lines
Protocol: They were added to 96-well plates with seeded normal and cancer cells (1 × 10^4 cells per well) and incubated for 72 h. MTT analysis was performed according to a previous study. […]

Danio rerio larvae = assay: In vivo toxicity, maximum tolerated concentration; conditions: zebrafish larvae, immersion from 96 hpf for 18 h (120 hpf), 5-150 μM tested
Protocol: Zebrafish (Danio rerio, strain AB) was maintained at the Experimental Medicine Center, Medical University of Lublin, Poland. Embryos and larvae up to 120 h postfertilization (hpf) were kept under generally accepted environmental conditions, i.e., in incubators at 28.5 °C, with 14/10 h light/dark cycles. The embryos of the Zebrafish were harvested after the natural reproduction process.
Three compounds showing low IC50 values determined on cancer lines in in vitro tests (2b, 4a) and compound 1a characterized by low cytotoxicity were used for in vivo tests. We also conducted research for coumarin. These compounds were dissolved in dimethyl sulfoxide (DMSO) (Sigma-Aldrich, St. Louis, MO, USA) and diluted in the zebrafish medium (pH 7.1–7.3; 5.0 mM NaCl, 0.17 mM KCl, 0.33 mM CaCl2, 0.33 mM MgSO4) to achieve a final DMSO concentration of 1% w/v. Twenty-four hpf zebrafish embryos were investigated under a light microscope, and […] fertilized embryos (n = 60) were selected and transferred into 48-well plates (5 embryos per well). Larvae were incubated in 1 mL of the zebrafish medium for up to 3 days after fertilization.
On the fourth day postfertilization (96 hpf), the larvae (10 individuals per group) were incubated in solutions of coumarin or its three derivatives (1a, 2b, 4a) at selected concentrations (5, 10, 25, 50, 75, 100, 150 μM), along with control solutions: negative control (zebrafish medium) and solvent control (1% DMSO in zebrafish medium). The maximum tolerated concentration (MTC) was calculated to assess the toxicity of the compounds and extracts. […] Larvae were individually inspected under a microscope for signs of acute locomotor dysfunction, including a weak reaction to light tail stimulation with a fine needle, disrupted posture, body deformities, protruding eyes, slowed or absent heartbeat, and mortality.

[2] = Table S7, >100 entered as 100, read-out: mean anticancer IC50
[3] = read-out: average IC50 against tested cancer cell lines

Structure (SMILES)	IC50 (HaCaT; HaCaT) [µM]	IC50 (PC3; PC-3) [µM]	SI PC3 (PC3)	SI SW620 (SW620)	IC50 (SW620; SW-620) [µM]	IC50 (MDA-MB-231; MDA-MB-231) [µM]	SI SW480 (SW480)	IC50 (SW480; SW480) [µM]	IC50 [1, 2] [µM]	SI MDA-MB-231 (MDA-MB-231)	IC50 [1, 3] [µM]	IC50 (HaCaT) [µM]	IC50 (PC3) [µM]	IC50 (SW620) [µM]	IC50 (MDA-MB-231) [µM]	IC50 (SW480) [µM]	maximum tolerated concentration (MTC) (Danio rerio larvae) [µM]
COc1cccc2c1C(=O)c1c(O)c3c(c(O)c1C2=O)C[C@@](O)(C(=O)CO)C[C@@H]3O[C@H]1C[C@H](N)[C@H](O)[C@H](C)O1 [Doxorubicin, reference compound]	0.3 ± 0.1	0.3 ± 0.1	1.0	1.0	0.3 ± 0.1	1.6 ± 0.2	0.4	0.7 ± 0.1									
O=C(OC1CCCCC1)c1cc2ccccc2oc1=O [Compound 1f, Cyclohexyl 2-Oxo-2H-chromene-3-carboxylate]	> 100	> 100	1	1	> 100	> 100	1	> 100	> 100	1							
CC(C)[C@@H]1CC[C@@H](C)C[C@H]1OC(=O)c1cc2ccc(O)cc2oc1=O [Compound 1e, (1R,2S,5R)-2-Isopropyl-5-methylcyclohexyl 7-hydroxy-2-oxo-2H-chromene-3-carboxylate]	78.8 ± 7.12	21.8 ± 4.21	3.61	2.03	38.7 ± 0.01	86.7 ± 2.24	2.84	27.7 ± 2.42	43.7	0.91	43.7						
CCOP(=O)(OCC)c1cc2ccccc2oc1=O [Compound 2a, Diethyl (2-Oxo-2H-chromen-3-yl)phosphonate]			1	1			1			1		> 100	> 100	> 100	> 100	> 100	
O=c1ccc2ccccc2o1 [coumarin, 2H-chromen-2-one]																	100
COc1ccc2cc(C(=O)O[C@@H]3C[C@H](C)CC[C@H]3C(C)C)c(=O)oc2c1 [Compound 1c, (1R,2S,5R)-2-Isopropyl-5-methylcyclohexyl 7-methoxy-2-oxo-2H-chromene-3-carboxylate]	15.3 ± 4.41	> 100	0.15	0.15	> 100	> 100	0.15	> 100	> 100	0.15							
N.N.[Cl][Pt][Cl] [Cisplatin, reference compound]														6.7 ± 1.1	7.3 ± 0.8	10.4 ± 0.9	
CCOP(=O)(OCC)C1C(=O)Oc2c(OC)cccc2C1P(=O)(c1ccccc1)c1ccccc1 (stereo not drawn) [Compound 5b, Diethyl (4-(Diphenylphosphoryl)-8-methoxy-2-oxochroman-3-yl)phosphonate]	> 100	> 100	1	1	> 100	> 100	1	> 100	> 100	1							
COc1cccc2cc(C(=O)O[C@@H]3C[C@H](C)CC[C@H]3C(C)C)c(=O)oc12 [Compound 1d, (1R,2S,5R)-2-Isopropyl-5-methylcyclohexyl 8-Methoxy-2-oxo-2H-chromene-3-carboxylate]	> 100	29.3 ± 2.05	3.41	1	> 100	36.6 ± 7.74	3.93	25.4 ± 6.12	> 47.8	2.73	> 47.8						
CC(C)[C@@H]1CC[C@@H](C)C[C@H]1OC(=O)c1cc2ccccc2oc1=O [Compound 1a, (1R,2S,5R)-2-Isopropyl-5-methylcyclohexyl 2-oxo-2H-chromene-3-carboxylate]	82.7 ± 3.5	57.8 ± 3.87	1.43	1.44	57.3 ± 5.36	76.5 ± 8.85	1.17	70.5 ± 2.31	65.5	1.08	65.5						0
CCOC(=O)C1C(=O)Oc2ccccc2C1P(=O)(c1ccccc1)c1ccccc1 (stereo not drawn) [Compound 4c, Ethyl 4-(Diphenylphosphoryl)-2-oxochroman-3-carboxylate]	> 100	> 100	1	1	> 100	> 100	1	> 100	> 100	1							
CCOP(=O)(OCC)C1C(=O)Oc2ccccc2C1P(=O)(c1ccccc1)c1ccccc1 (stereo not drawn) [Compound 5a, Diethyl (4-(Diphenylphosphoryl)-2-oxochroman-3-yl)phosphonate]	> 100	> 100	1	1	> 100	> 100	1	> 100	> 100	1							
COc1cccc2cc(P(=O)(c3ccccc3)c3ccccc3)c(=O)oc12 [Compound 3, 3-(Diphenylphosphinyl)-8-methoxy-2H-chromen-2-one]	> 100	> 100	1	1	> 100	> 100	1	> 100	> 100	1							
CCOC(=O)C1C(=O)Oc2ccccc2C1P(=O)(OCC)OCC (stereo not drawn) [Compound 4d, Ethyl 4-(diethoxyphosphoryl)-2-oxochroman-3-carboxylate]	> 100	> 100	1	1	> 100	> 100	1	> 100	> 100	1							
CC(C)[C@H]1CC[C@H](C)C[C@@H]1OC(=O)c1cc2ccccc2oc1=O [Compound 1b, (1S,2R,5S)-2-Isopropyl-5-methylcyclohexyl 2-oxo-2H-chromene-3-carboxylate]	41.1 ± 2.8	> 100	0.41	0.41	> 100	> 100	0.41	> 100	> 100	0.41							
